Results published in ChEMBL document CHEMBL4680113, “Tigliane Diterpenoids as a New Type of Antiadipogenic Agents Inhibit GRα-Dexras1 Axis in Adipocytes” (J Med Chem, 2019).
Calls of active or inactive are those of the source. No cut-off for these calls is given here.

Assays:
[1] = Selectivity index, ratio of IC50 for cytotoxicity against mouse 3T3-L1 cells to EC50 for lipid lowering activity in mouse 3T3-L1 cells
HEK293 = assay: Toxicity in HEK293 cells assessed as reduction in cell viability at 10 uM incubated for 6 days by MTT assay; assay type: cell-based; conditions: human, hek293, 144 h, time 6 day
HepG2 [2] = assay: Lipid lowering activity in human HepG2 cells assessed as reduction in high-glucose induced triglyceride levels at 1 uM incubated for 24 hrs by GPO-POD assay; assay type: functional, cell-based
3T3-L1 [3] = assay: Inhibition of cell differentiation in mouse 3T3-L1 cells assessed as reduction in adipogenic cocktail-induced triglyceride levels at 1 uM incubated for 0 to 3 days by Oil-Red O staining; assay type: functional, cell-based; conditions: time 0-3 day
3T3-L1 [4] = assay: Inhibition of adipogenic cocktail-induced C/EBPbeta mRNA expression in mouse 3T3-L1 cells incubated for 24 hrs by RT-qPCR analysis; assay type: functional, cell-based
3T3-L1 [5] = assay: Inhibition of adipogenic cocktail-induced PPARgamma protein expression in mouse 3T3-L1 cells incubated for 24 hrs by Western blot analysis; assay type: functional, cell-based
3T3-L1 [6] = assay: Inhibition of adipogenic cocktail-induced SCD1 mRNA expression in mouse 3T3-L1 cells incubated for 6 days by RT-qPCR analysis; assay type: functional, cell-based; conditions: time 6.0 day
3T3-L1 [7] = assay: Inhibition of adipogenic cocktail-induced ACC mRNA expression in mouse 3T3-L1 cells incubated for 6 days by RT-qPCR analysis; assay type: functional, cell-based; conditions: time 6.0 day
3T3-L1 [8] = assay: Inhibition of adipogenic cocktail-induced SCD1 protein expression in mouse 3T3-L1 cells incubated for 6 days by Western blot analysis; assay type: functional, cell-based; conditions: time 6.0 day
3T3-L1 [9] = assay: Inhibition of adipogenic cocktail-induced C/EBP-beta protein expression in mouse 3T3-L1 cells at 1 to 10 uM incubated for 0.5 hrs by Western blot analysis; assay type: functional, cell-based; conditions: dose 1-10 µM
HepG2 [10] = assay: Lipid lowering activity in human HepG2 cells assessed as reduction in high-glucose induced triglyceride levels at 1 uM incubated for 6 days in presence of Dexras1 siRNA by GPO-POD assay; assay type: functional, cell-based; conditions: time 6.0 day
3T3-L1 [11] = assay: Inhibition of adipogenic cocktail-induced GR-alpha nuclear translocation in mouse 3T3-L1 cells at 1 uM after 8 hrs by immunofluorescence assay; assay type: cell-based
3T3-L1 [12] = assay: Lipid lowering activity in mouse 3T3-L1 cells assessed as reduction in methylprednisolone-induced triglyceride levels at 1 uM incubated for 6 days by GPO-POD assay; assay type: functional, cell-based; conditions: time 6.0 day
3T3-L1 [13] = assay: Inhibition of methylprednisolone-induced PPARgamma mRNA expression in mouse 3T3-L1 cells at 1 uM by RT-qPCR analysis; assay type: functional, cell-based
3T3-L1 [14] = assay: Inhibition of GR-alpha in mouse 3T3-L1 cells assessed as reduction in adipogenic cocktail-induced Dexras1 mRNA expression at 1 uM incubated for 4 hrs by RT-qPCR analysis; assay type: cell-based
3T3-L1 [15] = assay: Inhibition of GR-alpha in mouse 3T3-L1 cells assessed as reduction in methylprednisolone-induced Dexras1 mRNA expression at 1 uM incubated for 4 hrs by RT-qPCR analysis; assay type: cell-based
3T3-L1 [16] = assay: Inhibition of GR-alpha in mouse 3T3-L1 cells assessed as reduction in GR-alpha interaction with Dexras1 at 1 uM incubated for 8 hrs by ChIP assay; assay type: cell-based
3T3-L1 [17] = assay: Inhibition of GR-alpha in mouse 3T3-L1 cells assessed as reduction in GR-alpha interaction with C/EBP-beta at 1 uM incubated for 8 hrs by ChIP assay; assay type: cell-based

SMILES	Selectivity Index [1]	Activity (HEK293)	inhibition (HepG2 [2])	inhibition (3T3-L1 [3])	inhibition (3T3-L1 [4])	inhibition (3T3-L1 [5])	inhibition (3T3-L1 [6])	inhibition (3T3-L1 [7])	inhibition (3T3-L1 [8])	inhibition (3T3-L1 [9])	inhibition (HepG2 [10])	inhibition (3T3-L1 [11])	inhibition (3T3-L1 [12])	inhibition (3T3-L1 [13])	inhibition (3T3-L1 [14])	inhibition (3T3-L1 [15])	inhibition (3T3-L1 [16])	inhibition (3T3-L1 [17])
CC(=O)O[C@@H]1C(C)=C[C@H]2[C@@H]3C(C)(C)[C@]3(OC(=O)C(C)C)[C@H](OC(=O)c3ccccc3)[C@@H](C)[C@]2(O)[C@@H]2C=C(C)C(=O)[C@@H]12	>312	Non-Toxic	Active	Active	Dose-dependent effect	Dose-dependent effect	Dose-dependent effect	Dose-dependent effect	Dose-dependent effect	inactive	Active	Active	Active	Active	Active	Active	Active	Active
CC1=C[C@@H]2[C@@H](C1=O)[C@H](O)C(C)=C[C@H]1[C@@H]3C(C)(C)[C@]3(OC(=O)C(C)C)[C@H](OC(=O)c3ccccc3)[C@@H](C)[C@]21O	28	Non-Toxic	Active	Active	Dose-dependent effect	Dose-dependent effect	Dose-dependent effect	Dose-dependent effect	Dose-dependent effect	inactive	–	Active	–	–	–	–	Active	Active
